Test results published in patent US20240066131A1 (Protagonist Therapeutics, Inc., priority 2020, published 2024).
Where two headings read alike, the source gives them in different places. Starred links: 1 amine or outer side, 2 acyl side, 3 side chain; linkers in the order of their positions; H or OH if unused. Non-standard residues stand in square brackets, D forms with d. Residues, ends and D or L forms follow the SMILES beside them. Groups on a side chain read outwards from the residue. *: point of attachment. Gly(N-CH2CH2-imidazol-4-yl) = O=C(O)CNCCc1c[nH]cn1; C18 diacid = O=C(O)CCCCCCCCCCCCCCCCC(=O)*; Dip = N[C@H](C(=O)O)C(c1ccccc1)c1ccccc1; γGlu = O=C(O)[C@H](CCC(=O)[*:2])N[*:1]; His(τ-Me) = Cn1cnc(C[C@H](N)C(=O)O)c1; Palmitoyl = CCCCCCCCCCCCCCCC(=O)*; Myristoyl = CCCCCCCCCCCCCC(=O)*; β3hF = N[C@H](CC(=O)O)Cc1ccccc1; hLeu = CC(C)CC[C@H](N)C(=O)O; Lauroyl = CCCCCCCCCCCC(=O)*; Isovaleryl = CC(C)CC(=O)*; AEEA = NCCOCCOCC(=O)O; Ahx = NCCCCCC(=O)O; NHPr = CCCN*

Target: T1, ferroportin (Homo sapiens, UniProt Q9NP59)
T1 sequence (Q9NP59 1-571): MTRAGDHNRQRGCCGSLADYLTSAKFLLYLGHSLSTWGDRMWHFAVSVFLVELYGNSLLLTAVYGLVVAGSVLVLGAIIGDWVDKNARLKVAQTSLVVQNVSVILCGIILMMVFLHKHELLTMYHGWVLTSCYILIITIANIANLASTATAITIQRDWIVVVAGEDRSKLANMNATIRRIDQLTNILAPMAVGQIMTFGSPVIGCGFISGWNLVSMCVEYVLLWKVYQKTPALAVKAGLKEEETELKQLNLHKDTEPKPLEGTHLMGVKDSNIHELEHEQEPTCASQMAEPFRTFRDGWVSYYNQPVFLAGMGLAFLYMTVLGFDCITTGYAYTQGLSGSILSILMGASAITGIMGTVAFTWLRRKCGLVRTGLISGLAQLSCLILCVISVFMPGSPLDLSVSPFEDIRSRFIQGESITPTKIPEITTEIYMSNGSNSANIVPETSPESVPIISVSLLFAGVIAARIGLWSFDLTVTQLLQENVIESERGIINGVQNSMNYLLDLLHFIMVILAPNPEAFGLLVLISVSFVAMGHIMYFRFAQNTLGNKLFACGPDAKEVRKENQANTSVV
Assay: FPN activity assay: internalization/degradation of ferroportin-GFP in stably transfected HEK293 cells (loss of GFP fluorescence)
Assay type: cell-based
Method: Following internalization, the ferroporin protein is degraded.
A retro inverse peptide is a peptide with a reversed sequence in all D amino acids. An example is that Hy-Glu-Thr-His-NH2 becomes Hy-DHis-DThr-DGlu-NH2. The EC50 of these reference compounds for ferroportin internalization/degradation was determined according to the FPN activity assay described above. These peptides served as control standards.

[1] = ferroportin-GFP HEK293 cells, compound incubated at least 18 hours, read-out: FPN IC50

Structure (SMILES) | DC50 [1] | DC50 (Table 6A, read-out: FPN EC50)
CCCCCCCCCCCCCC(=O)NCCCCCC(=O)NCCCC[C@H](NC(=O)[C@@H](NC(=O)[C@H](C)NC(=O)[C@@H]1CCCN1C(=O)[C@H](Cc1ccccc1)NC(=O)[C@H](Cc1c[nH]cn1)NC(=O)[C@@H](NC(=O)[C@H](CCC(=O)O)NC(=O)CC(C)C)[C@@H](C)O)[C@@H](C)CC)C(=O)N[C@@H](Cc1ccccc1)C(=O)N[C@@H](CCC(=O)O)C(=O)N1CCC[C@H]1C(=O)N[C@@H](CCCNC(=N)N)C(=O)N[C@@H](CO)C(=O)N[C@@H](CCCCN)C(=O)NCC(=O)N[C@@H](C)C(=O)N[C@H](CCCCN)C(N)=O [compound 245] (Isovaleryl-ETHFPAIK([Ahx-Myristoyl])FEPRSKGA[dK]-NH2) | 1160 nM | 
CC[C@H](C)[C@H](NC(=O)[C@@H](NC(=O)[C@@H]1CCCN1C(=O)[C@@H](NC(=O)[C@H](Cc1c[nH]cn1)NC(=O)[C@@H](NC(=O)[C@H](CCC(=O)O)NC(=O)CNCC(=O)O)[C@@H](C)O)C(c1ccccc1)c1ccccc1)[C@@H](C)CC)C(=O)N[C@@H](CCCCNC(C)=O)C(=O)N[C@H](CC(N)=O)Cc1ccccc1 [compound 71] |  | > 5000 nM
CCCNC(=O)[C@H](CCCCNC(=O)COCCOCCNC(=O)COCCOCCNC(=O)CC[C@H](NC(=O)CCCCCCCCCCCCCCCCC(=O)O)C(=O)O)NC(=O)[C@@H](NC(=O)[C@H](Cc1c[nH]cn1)NC(=O)[C@@H](NC(=O)[C@H](CC(C)C)NC(=O)CC(C)C)[C@@H](C)O)C(c1ccccc1)c1ccccc1 [compound 228] (Isovaleryl-LTH[Dip]K([AEEA-AEEA-γGlu-C18 diacid])-NHPr) | > 3000 nM | 

The remaining lines, values ahead:

DC50 [1] | DC50 (Table 6A, read-out: FPN EC50) | Structure (SMILES)
37.4 nM |  | CCCCCCCCCCCCCCCC(=O)NCCCCCC(=O)NCCCC[C@H](NC(=O)[C@@H](NC(=O)[C@H](CC(C)C)NC(=O)[C@@H]1CCCN1C(=O)[C@@H](NC(=O)[C@H](Cc1c[nH]cn1)NC(=O)[C@@H](NC(=O)[C@H](CCC(=O)O)NC(=O)CC(C)C)[C@@H](C)O)C(c1ccccc1)c1ccccc1)[C@@H](C)CC)C(=O)N[C@@H](CC(C)C)C(N)=O [compound 205] (Isovaleryl-ETH[Dip]PLIK([Ahx-Palmitoyl])L-NH2)
 | > 3000 nM | CCCCCCCCCCCCCCCC(=O)NCCCCCC(=O)NCCCC[C@H](NC(=O)[C@@H](NC(=O)[C@H](C)NC(=O)[C@@H]1CCCN1C(=O)[C@@H](NC(=O)CN(CCc1c[nH]cn1)C(=O)[C@@H](NC(=O)[C@H](CCC(=O)O)NC(=O)CC(C)C)[C@@H](C)O)C(c1ccccc1)c1ccccc1)[C@@H](C)CC)C(=O)N[C@H](CC(N)=O)Cc1ccccc1 [compound 88] (Isovaleryl-ET[Gly(N-CH2CH2-imidazol-4-yl)][Dip]PAIK([Ahx-Palmitoyl])[β3hF]-NH2)
 | > 3000 nM | CCCCCCCCCCCCCCCC(=O)NCCCCCC(=O)NCCCC[C@H](NC(=O)[C@@H](NC(=O)[C@H](C)NC(=O)[C@@H]1CCCN1C(=O)[C@@H](NC(=O)[C@H](Cc1cn(C)cn1)NC(=O)[C@@H](NC(=O)[C@H](CC(C)C)NC(=O)CC(C)C)[C@@H](C)O)C(c1ccccc1)c1ccccc1)[C@@H](C)CC)C(=O)N[C@H](CC(N)=O)Cc1ccccc1 [compound 45] (Isovaleryl-LT[His(τ-Me)][Dip]PAIK([Ahx-Palmitoyl])[β3hF]-NH2)
 | 150 nM | CCCCCCCCCCCCCCCC(=O)NCCCCCC(=O)NCCCC[C@H](NC(=O)[C@@H](NC(=O)[C@H](CCC(C)C)NC(=O)[C@@H]1CCCN1C(=O)[C@@H](NC(=O)[C@H](Cc1c[nH]cn1)NC(=O)[C@@H](NC(=O)[C@H](CCC(=O)O)NC(=O)CC(C)C)[C@@H](C)O)C(c1ccccc1)c1ccccc1)[C@@H](C)CC)C(=O)N[C@H](CC(N)=O)Cc1ccccc1 [compound 121] (Isovaleryl-ETH[Dip]P[hLeu]IK([Ahx-Palmitoyl])[β3hF]-NH2)
 | 109 nM | CCCCCCCCCCCC(=O)NCCCCCC(=O)NCCCC[C@H](NC(=O)[C@@H](NC(=O)[C@H](C)NC(=O)[C@@H]1CCCN1C(=O)[C@@H](NC(=O)[C@H](Cc1c[nH]cn1)NC(=O)[C@@H](NC(=O)[C@H](CCC(=O)O)NC(=O)CC(C)C)[C@@H](C)O)C(c1ccccc1)c1ccccc1)[C@@H](C)CC)C(=O)N[C@H](CC(N)=O)Cc1ccccc1 [compound 105] (Isovaleryl-ETH[Dip]PAIK([Ahx-Lauroyl])[β3hF]-NH2)
